What was measured:
[1] = system: apomorphine-induced climbing behavior and hypothermia; conditions: mice; cited from earlier work
[2] = system: conditioned avoidance response; conditions: rats; cited from earlier work
[3] = detection of radiolabelled compound in saliva; format: in vivo
Description: For example, in the treatment of adult humans, dosages of from about 5 to 20 mg per day may be used. A once a day dosage is normally sufficient, although divided doses may be administered. For treatment of fungal dermatitis in a human, a dose range of from about […], preferably 5 to 20 mg per day is suitable.

fungal dermatitis = test: double-blind, randomized, placebo and haloperidol-controlled clinical trial; format: in vivo; conditions: human, 15±2.5 mg/day vs haloperidol (15±5 mg/day), double-blind extension treatment phase
Description: Such effectiveness for the treatment, amelioration of fungal dermatitis was shown in the following clinical trial:
The study was a double-blind, randomized, parallel, placebo and haloperidol-controlled study of 55 human subjects. The study was conducted in 23 study centers throughout the United States and Canada. […] The acute phase lasted for 6 weeks with evaluations performed weekly followed by a double-blind extension phase of at least one year.

In the case of `Cc1cc2c(s1)Nc1ccccc1N=C2N1CCN(C)CC1` [2-methyl-4-(4-methyl-1-piperazinyl)-10H-thieno[2,3-b][1,5]benzodiazepine], the apomorphine-induced climbing behavior [1] is given as “antagonized”, the apomorphine-induced hypothermia [1] is given as “antagonized” and the conditioned avoidance response [2] is given as “inhibits”. The “detection in the saliva” value [3] was “can be detected in the saliva” and the “occurrence of fungal dermatitis versus haloperidol” value (fungal dermatitis) was “statistically significantly less frequently”.

From patent US5744469A, “Method for treating dermatitis” (Eli Lilly and Company, priority 1996, dated 1998)
